Source: ChEMBL document CHEMBL1148958, “Antibacterial activity of naphthoquinones and triterpenoids from Euclea natalensis root bark” (J Nat Prod, 2004)
Active and inactive are the calls of the source. The calls are words filed in the database; no cut-off is given here.

Experiments:
Format in all cases: functional, organism-based
[1] = system: Mycobacterium tuberculosis; test: Antimycobacterial activity against Mycobacterium tuberculosis H37Rv at 0.006 mg/ml by rapid radiometric method
[2] = system: Serratia marcescens; test: Antibacterial activity against Serratia marcescens ATCC 13880 at 0.1 mg/ml by agar plate method
[3] = system: Escherichia coli; test: Antibacterial activity against Escherichia coli ATCC 25922 at 0.01 mg/ml by agar plate method
[4] = system: Enterobacter cloacae; test: Antibacterial activity against Enterobacter cloacae ATCC 13047 at 0.01 mg/ml by agar plate method
[5] = system: Pantoea agglomerans; test: Antibacterial activity against Pantoea agglomerans ATCC 27155 at 0.01 mg/ml by agar plate method
[6] = system: Bacillus subtilis; test: Antibacterial activity against Bacillus subtilis ATCC 6633 at 0.01 mg/ml by agar plate method
[7] = system: Enterococcus faecalis; test: Antibacterial activity against Streptococcus faecalis at 0.01 mg/ml by agar plate method
[8] = system: Pseudomonas aeruginosa; test: Antibacterial activity against Pseudomonas aeruginosa ATCC 27853 at 0.05 mg/ml by agar plate method
[9] = system: Bacillus pumilus; test: Antibacterial activity against Bacillus pumilus ATCC 27142 at 0.01 mg/ml by agar plate method
[10] = system: Staphylococcus aureus; test: Antibacterial activity against Staphylococcus aureus ATCC 25923 at 0.01 mg/ml by agar plate method
[11] = system: Bacillus cereus; test: Antibacterial activity against Bacillus cereus at 0.01 mg/ml by agar plate method
[12] = system: Klebsiella pneumoniae; test: Antibacterial activity against Klebsiella pneumoniae ATCC 10031 at 0.01 mg/ml by agar plate method
[13] = system: Mycobacterium tuberculosis; test: Antimycobacterial activity against Mycobacterium tuberculosis H37Rv at 0.004 mg/ml by rapid radiometric method
[14] = system: Staphylococcus aureus; test: Antibacterial activity against Staphylococcus aureus ATCC 25923 at 0.1 mg/ml by agar plate method
[15] = system: Mycobacterium tuberculosis; test: Antimycobacterial activity against Mycobacterium tuberculosis H37Rv at 0.1 mg/ml by rapid radiometric method
[16] = system: Enterococcus faecalis; test: Antibacterial activity against Streptococcus faecalis at 0.1 mg/ml by agar plate method
[17] = system: Bacillus subtilis; test: Antibacterial activity against Bacillus subtilis ATCC 6633 at 0.1 mg/ml by agar plate method
[18] = system: Bacillus pumilus; test: Antibacterial activity against Bacillus pumilus ATCC 27142 at 0.1 mg/ml by agar plate method

CC[C@@H](CO)NCCN[C@@H](CC)CO
Activity [1]: Active

CN[C@@H]1[C@H](O[C@H]2[C@H](O[C@H]3[C@H](O)[C@@H](O)[C@H](N=C(N)N)[C@@H](O)[C@@H]3N=C(N)N)O[C@@H](C)[C@]2(O)C=O)O[C@@H](CO)[C@H](O)[C@H]1O
Activity [2]: Active
Activity [3]: Active
Activity [4]: Active
Activity [5]: Active
Activity [6]: Active
Activity [7]: Active
Activity [8]: Active
Activity [9]: Active
Activity [10]: Active
Activity [11]: Active
Activity [12]: Active
Activity [13]: Active

Cc1cc(O)c2c(c1)[C@H](O)CCC2=O
Activity [14]: Active
Activity [15]: Active
Activity [16]: Active
Activity [17]: Active
Activity [18]: Active

Cc1cc(O)c2c(c1)C(=O)C[C@H](c1c(C)cc3c(c1O)C(=O)CCC3O)[C@@H]2O (stereo not given in full)
Activity [18]: inactive

C=C(C)[C@@H]1CC[C@]2(C)CC[C@]3(C)[C@@H](CC[C@@H]4[C@@]5(C)CC[C@H](OC(=O)/C=C/c6ccc(OC)c(O)c6)C(C)(C)[C@@H]5CC[C@]43C)[C@H]12
Activity [18]: Active
